# Measurements: the Kinase Knowledgebase extract (Sharma et al. 2016)
# pIC50: −log10 of the molar value.
# Target: PIK3CB;PIK3CG;PIK3CD;PIK3CA (human) (UniProt P48736)
# Assay: Enzyme Assay
row,Structure (SMILES),pIC50
1,CNC(=O)c1ccc2nc(-n3ccnc3)nc(N3CCOCC3)c2n1,5.96
2,Cc1nnc(-c2cc(N(C)C)c3nc(-n4ccnc4)nc(N4CCOCC4)c3n2)o1,6.64
3,Cc1noc(-c2ccc3nc(-n4cccn4)nc(N4CCOCC4)c3n2)n1,6.30
4,Cc1ccc2nc(-c3ccccc3)nc(N3CCOCC3)c2n1,5.74
5,CSCc1ccc2nc(-n3ccnc3)nc(N3CCOCC3)c2n1,5.42
6,CSc1cc(C(=O)N(C)C)nc2c(N3CCOCC3)nc(-c3cccc(CO)c3)nc12,6.85
7,COC(=O)c1cc(SC)c2nc(-c3cccc4[nH]ccc34)nc(N3CCOCC3)c2n1,5.90
8,COCc1noc(-c2ccc3nc(-n4cccn4)nc(N4CCOCC4)c3n2)n1,6.08
9,OCc1cc(N2CCOCC2)c2nc(-n3ccnc3)nc(N3CCOCC3)c2n1,5.53
10,Cc1noc(-c2cc(Cl)c3nc(-n4ccnc4)nc(N4CCOCC4)c3n2)n1,5.48
11,Cc1ccc2nc(-n3ccnc3)nc(N3CCOCC3)c2n1,6.02
12,COC(=O)c1cc(Cl)c2nc(-n3ccnc3)nc(N3CCOCC3)c2n1,6.09
13,COC(=O)c1cc(-n2cccc2)c2nc(-n3cccc3)nc(N3CCOCC3)c2n1,5.09
14,COCCNc1cc(C(=O)OC)nc2c(N3CCOCC3)nc(-n3ccnc3)nc12,5.89
15,COC(=O)c1cc(SC)c2nc(-c3ccncc3)nc(N3CCOCC3)c2n1,5.24
16,COC(=O)c1cc(SC)c2nc(-n3ccnc3)nc(N3CCOCC3)c2n1,6.46
17,Cc1noc(-c2cc(N(C)C)c3nc(-n4ccnc4)nc(N4CCOCC4)c3n2)n1,6.23
18,COCCN(C)c1cc(-c2nc(C)no2)nc2c(N3CCOCC3)nc(-n3cccn3)nc12,5.60
19,COCc1ccc2nc(-n3ccnc3)nc(N3CCOCC3)c2n1,6.08

row,Structure (SMILES),pIC50
1,COC(=O)c1cc(N2CCOCC2)c2nc(-n3ccnc3)nc(N3CCOCC3)c2n1,6.17
2,COC(=O)c1cc(S(C)(=O)=O)c2nc(-n3ccnc3)nc(N3CCOCC3)c2n1,6.24
3,COCc1cc(N(C)C)c2nc(-n3ccnc3)nc(N3CCOCC3)c2n1,5.94
4,c1cnc2c(N3CCOCC3)nc(-n3ccnc3)nc2c1,5.28
5,COC(=O)c1cc(N(C)C)c2nc(-n3ccnc3)nc(N3CCOCC3)c2n1,6.38
6,Cc1noc(-c2ccc3nc(-n4ccnc4)nc(N4CCOCC4)c3n2)n1,6.10
7,CSc1cc(-c2nnc(C)o2)nc2c(N3CCOCC3)nc(-n3ccnc3)nc12,6.49
8,COC(=O)c1cc(SC)c2nc(-c3ccc(OC)cc3)nc(N3CCOCC3)c2n1,4.94
9,COCCN(C)c1cc(C(=O)OC)nc2c(N3CCOCC3)nc(-n3ccnc3)nc12,5.85
10,CN(C)Cc1ccc2nc(-n3ccnc3)nc(N3CCOCC3)c2n1,5.49
11,COCCN(C)c1cc(-c2nnc(C)o2)nc2c(N3CCOCC3)nc(-n3ccnc3)nc12,6.38
12,Cc1noc(-c2cc(N(C)C)c3nc(-n4cccn4)nc(N4CCOCC4)c3n2)n1,6.32
13,COC(=O)c1cc(SC)c2nc(C)nc(N3CCOCC3)c2n1,5.16
14,COC(=O)c1ccc2nc(-c3ccccc3)nc(N3CCOCC3)c2n1,6.37
15,CN(C)C(=O)c1ccc2nc(-n3ccnc3)nc(N3CCOCC3)c2n1,5.53
16,COCc1cc(CN2CCOCC2)c2nc(-n3ccnc3)nc(N3CCOCC3)c2n1,5.07
17,COC(=O)c1cc(SC)c2nc(Cl)nc(N3CCOCC3)c2n1,5.45
18,CN(C)CCNCc1ccc2nc(-n3ccnc3)nc(N3CCOCC3)c2n1,5.72
19,COC(=O)c1cc(SC)c2nc(-c3cn[nH]c3)nc(N3CCOCC3)c2n1,5.90

row,Structure (SMILES),pIC50
1,COC(=O)c1cc(SC)c2nc(-c3ccsc3)nc(N3CCOCC3)c2n1,5.74
2,COC(=O)c1ccc2nc(-n3ccnc3)nc(N3CCOCC3)c2n1,6.14
3,COC(=O)c1cc(Cl)c2nc(Cl)nc(N3CCOCC3)c2n1,4.91
4,CSc1cc(C(=O)N(C)C)nc2c(N3CCOCC3)nc(-c3cccc4[nH]ncc34)nc12,6.07
5,COCc1noc(-c2ccc3nc(-n4ccnc4)nc(N4CCOCC4)c3n2)n1,6.19
6,CSc1cc(CO)nc2c(N3CCOCC3)nc(-c3ccsc3)nc12,5.41
7,COC(=O)c1cc(S(C)(=O)=O)c2nc(Cl)nc(N3CCOCC3)c2n1,5.64
8,Cc1ccc2nc(Cl)nc(N3CCOCC3)c2n1,5.06
9,COC(=O)c1cc(SC)c2nc(-c3cnn(C)c3)nc(N3CCOCC3)c2n1,5.92
10,COCc1cc(SC)c2nc(-n3ccnc3)nc(N3CCOCC3)c2n1,5.64
11,CSc1cc(-c2nc(C)no2)nc2c(N3CCOCC3)nc(-n3cccn3)nc12,6.66
12,COC(=O)c1cc(SC)c2nc(-c3ccccc3)nc(N3CCOCC3)c2n1,5.55
13,COC(=O)c1cc(Cl)c2nc(-n3cccn3)nc(N3CCOCC3)c2n1,5.78
14,CSc1cc(-c2nc(C)no2)nc2c(N3CCOCC3)nc(-n3ccnc3)nc12,5.45
15,NC(=O)c1ccc2nc(-n3ccnc3)nc(N3CCOCC3)c2n1,5.74
16,CN(C)CCNC(=O)c1cc(NCCN(C)C)c2nc(-n3ccnc3)nc(N3CCOCC3)c2n1,5.75
17,OCc1ccc2nc(-n3ccnc3)nc(N3CCOCC3)c2n1,5.40
18,COC(=O)c1cc(N2CCN(C)CC2)c2nc(-n3ccnc3)nc(N3CCOCC3)c2n1,6.00
